# Source: PMC4949516 (Chemmedchem, 2016)
# pIC50, pKd: −log10 of the molar value.
# Columns and labels:
# [1] = target: T1, PKA catalytic subunit (Bos taurus, UniProt P00517); assay: fluorescence polarisation competition with compound […]; type: binding
# T1 construct: gene PRKACA; native catalytic subunit purified from bovine heart PKA (P5511) by column chromatography
# [2] = target: T2, PKA (cAMP-dependent protein kinase), semi-pure tetramer (Bos taurus, UniProt P00517); assay: fluorescence polarisation saturation binding, one-site fit; settings: read-out: binding constant
# T2 construct: gene PRKACA; native, semi-pure from bovine heart; whole tetramer of two catalytic and two regulatory subunits; with cAMP-dependent protein kinase type II-alpha regulatory subunit
smiles,measurement,setting,value
CC1CNCCN1S(=O)(=O)c1cccc2cnccc12 (centres unmarked) [H‐7],pIC50,[1],5.41
"CO[C@@H]1[C@H](N(C)CC(=O)NCCNC(=O)CCC(=O)NCCOCCOCCNC(=S)Nc2ccc(-c3c4ccc(=O)cc-4oc4cc(O)ccc34)c(C(=O)O)c2)C[C@H]2O[C@]1(C)n1c3ccccc3c3c4c(c5c6ccccc6n2c5c31)C(=O)NC4 [compound 8, 2‐(6‐Hydroxy‐3‐oxo‐3H‐xanthen‐9‐yl)‐5‐(3‐(2‐((5R,7R,8R,9S)‐8‐methoxy‐9‐methyl‐16‐oxo‐6,7,8,9,15,16‐hexahydro‐5H,14H‐17‐oxa‐4b,9a,15‐triaza‐5,9‐methanodibenzo[b,h]cyclonona[jkl]‐cyclopenta[e]‐as‐indacen‐7‐yl)‐4,9,12‐trioxo‐16,19‐dioxa‐2,5,8,13‐tetraazahenicosan‐21‐yl)thioureido)benzoic acid]",pKd,[2],7.36
